Values quoted from earlier work, collected in patent US20190352262A1, “New Pleuromutilin Antibiotic Compounds, Compositions and Methods of Use and Synthesis” (YALE UNIVERSITY, priority 2017, published 2019).
Entries after “also recorded” stand apart in the source; their conditions may differ.

Test system: Gram-positive bacteria
Details: background statement, no data of the applicant

Structure (SMILES): C=C[C@]1(C)C[C@@H](OC(=O)CO)[C@@]2(C)C3C(=O)CC[C@@]3(CC[C@H]2C)[C@H](C)C1O (single isomer, unassigned; (+)) [(+)-Pleuromutilin, (+)-pleuromutilin]
- antibacterial activity (growth inhibition of Gram-positive bacteria): inhibit the growth

Structure (SMILES): C=C[C@]1(C)C[C@@H](O)[C@]2(C)[C@H](C)CC[C@]3(CCC(=O)[C@H]32)[C@@H](C)[C@@H]1O [(+)-mutilin]
- antibacterial activity (growth inhibition of Gram-positive bacteria): not active; also recorded: largely inactive
